Some test systems named below: BT-549 breast; HOP-92 NSCLC; HT29 colon; MALME-3M melanoma; MCF7 breast; MDA-MB-231 breast; MOLT-4 leukemia; NCI-H226 lung; NCI-H460 lung; UACC-257 melanoma.
Holding throughout (assay): growth of human tumour cells (NCI), 48 h

Where “and” joins values, the source holds several entries; their conditions need not be identical. Equal values may be shown once.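 Briefly, cells in 96-well plates were exposed to five compound concentrations for 48 h, and endpoints were estimated by linear interpolation. At the GI50, growth is halved. TGI marks complete inhibition of growth.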 Some results are limits rather than exact numbers.

For `Cc1ccc(O)cc1Nc1ccnc2ccc(S(C)(=O)=O)cc12`, the GI50 is 5.06 µM in the assay with BT-549 breast; 32.7 nM with HOP-92 NSCLC; 433 nM in the assay with HT29 colon; 892 nM with MALME-3M melanoma; above 25000 nM with MCF7 breast; 507 nM in the assay on MDA-MB-231 breast. In addition, the GI50 in the assay with MOLT-4 leukemia is above 19800 nM; with NCI-H226 lung, 5.05 µM; in the assay on NCI-H460 lung, 10.5 µM; with UACC-257 melanoma, 957 nM. The TGI in the assay on BT-549 breast is 17.8 µM; in the assay on HOP-92 NSCLC, 245 nM; in the assay with HT29 colon, 2.92 µM; in the assay on MALME-3M melanoma, 9.35 µM; with MCF7 breast, above 25 µM; with MDA-MB-231 breast, 4.68 µM. In addition, the TGI in the assay with MOLT-4 leukemia is above 25 µM; in the assay on NCI-H226 lung it was above 23.6 µM; in the assay on NCI-H460 lung it was above 25 µM; with UACC-257 melanoma, above 25 µM.
In the case of `O=C1C=C[C@H](O)[C@@]2(CO)O[C@@H]12`, the GI50 in the assay on BT-549 breast was 12.4 µM; in the assay with HOP-92 NSCLC, 4770 nM; in the assay with HT29 colon, 6320 nM; in the assay on MALME-3M melanoma it was 2530 nM; with MCF7 breast, 5380 nM; in the assay on MDA-MB-231 breast, 15500 nM. The GI50 in the assay with MOLT-4 leukemia is 2990 nM; in the assay on NCI-H226 lung it was 17.3 µM; in the assay on NCI-H460 lung it was 26.8 µM; in the assay with UACC-257 melanoma it was 9250 nM. Further, the TGI worked out at 25.5 µM in the assay with BT-549 breast; 14600 nM in the assay on HOP-92 NSCLC; 19.7 µM with HT29 colon; 9.32 µM in the assay with MALME-3M melanoma; 23.8 µM with MCF7 breast; 30.1 µM in the assay on MDA-MB-231 breast. Further, the TGI in the assay with MOLT-4 leukemia was 16.5 µM; in the assay with NCI-H226 lung, 50.7 µM; with NCI-H460 lung, above 66.1 µM; in the assay with UACC-257 melanoma it was 23.6 µM.
Consider `CN(C)CCCC1(c2ccc(F)cc2)OCc2cc(-c3cccc4[nH]ccc34)ccc21` (stereo not drawn), for which the GI50 in the assay on BT-549 breast was 1.87 µM; in the assay with HOP-92 NSCLC, 1250 nM; in the assay on HT29 colon, 1600 nM; with MALME-3M melanoma it was 1560 nM; in the assay on MCF7 breast, 1550 nM; in the assay on MDA-MB-231 breast, 1490 nM. Also, the GI50 in the assay with MOLT-4 leukemia is 1490 nM; with NCI-H226 lung, 1.76 µM; in the assay on NCI-H460 lung it was 1.89 µM; in the assay with UACC-257 melanoma it was 1700 nM. Also, the TGI in the assay on BT-549 breast was 3.54 µM; in the assay on HOP-92 NSCLC, 2810 nM; in the assay on HT29 colon, 3.39 µM; in the assay with MALME-3M melanoma, 3.01 µM; with MCF7 breast, 3.25 µM; with MDA-MB-231 breast, 2.9 µM. Moreover, the TGI amounted to 3.22 µM with MOLT-4 leukemia, 3.52 µM with NCI-H226 lung, 3.63 µM in the assay on NCI-H460 lung and 3.18 µM in the assay on UACC-257 melanoma.
For the compound `N#Cc1nc2c(S(=O)(=O)c3ccc(Cl)cc3)c(N)n(Nc3cccc(Cl)c3)c2nc1C#N`, the GI50 is 0.131 µM with BT-549 breast; 29.5 nM in the assay with HT29 colon; 53.2 nM with MALME-3M melanoma; 15 nM in the assay on MCF7 breast; 17.8 nM with MDA-MB-231 breast; 16.2 nM with MOLT-4 leukemia. Besides, the GI50 is 0.106 µM in the assay with NCI-H226 lung and 0.0704 µM with NCI-H460 lung. In addition, the TGI with HOP-92 NSCLC is 99 nM; in the assay on MALME-3M melanoma, 0.33 µM; in the assay with MDA-MB-231 breast it was 0.0869 µM; in the assay on MOLT-4 leukemia, 0.103 µM; with NCI-H226 lung it was 0.322 µM and 0.302 µM; with NCI-H460 lung, above 100 µM. The TGI with UACC-257 melanoma was determined as 37.2 µM.
Regarding `CCCCCOc1ccc(/C=N/Nc2cc(C)nc3ccc(Cl)cc23)cc1`, the GI50 is 1.74 µM in the assay with BT-549 breast; 1470 nM in the assay on HOP-92 NSCLC; 1440 nM in the assay on HT29 colon; 1850 nM with MALME-3M melanoma; 1640 nM in the assay with MCF7 breast; 1710 nM with MDA-MB-231 breast. In addition, the GI50 with MOLT-4 leukemia is 1650 nM; in the assay with NCI-H226 lung, 1.64 µM; with NCI-H460 lung, 1.95 µM; in the assay with UACC-257 melanoma, 1720 nM. Further, the TGI in the assay with BT-549 breast is 3.28 µM; with HOP-92 NSCLC, 2960 nM; in the assay on HT29 colon it was 2.81 µM; in the assay with MALME-3M melanoma it was 3.39 µM; in the assay with MCF7 breast, 3.4 µM; with MDA-MB-231 breast it was 3.23 µM. Also, the TGI with MOLT-4 leukemia was determined as 3.36 µM; in the assay on NCI-H226 lung, 3.68 µM; with NCI-H460 lung, 3.96 µM; in the assay with UACC-257 melanoma, 3.27 µM.
On to `CC1(C)OC[C@@H]([C@@]2(CO[Si](c3ccccc3)(c3ccccc3)C(C)(C)C)CC=CC(=O)O2)O1`, for which the GI50 is 4.46 µM with BT-549 breast; 6720 nM in the assay with HOP-92 NSCLC; 7970 nM in the assay with HT29 colon; 2420 nM with MALME-3M melanoma; 4830 nM in the assay with MCF7 breast; 20600 nM with MDA-MB-231 breast. Moreover, the GI50 is 8940 nM with MOLT-4 leukemia, 5.54 µM with NCI-H226 lung, 5.16 µM with NCI-H460 lung and 3300 nM in the assay with UACC-257 melanoma. Also, the TGI in the assay with BT-549 breast is 19 µM; with HOP-92 NSCLC, 26200 nM; in the assay on HT29 colon, above 100 µM; with MALME-3M melanoma, 8.48 µM; in the assay on MCF7 breast, above 100 µM; with MDA-MB-231 breast it was above 100 µM. Also, the TGI in the assay with MOLT-4 leukemia is above 100 µM; with NCI-H226 lung it was 24.1 µM; in the assay with NCI-H460 lung, above 100 µM; with UACC-257 melanoma it was 9.95 µM.
`N#CC1(c2ccc(NC(=O)c3cccnc3NCc3ccncc3)cc2)CCCC1`: the GI50 in the assay on BT-549 breast was 10.2 µM; in the assay on HOP-92 NSCLC, 19300 nM; in the assay on HT29 colon, 9960 nM; in the assay with MALME-3M melanoma, 12100 nM; in the assay with MCF7 breast, 10600 nM; in the assay with MDA-MB-231 breast, 11300 nM. For the same compound, the GI50 with MOLT-4 leukemia was 6260 nM; in the assay with NCI-H226 lung it was 12.3 µM; in the assay on NCI-H460 lung, 14.1 µM; in the assay with UACC-257 melanoma, 17700 nM. Further, the TGI was 61 µM in the assay on BT-549 breast; above 100000 nM in the assay on HOP-92 NSCLC; above 56.2 µM in the assay on HT29 colon; 50.1 µM in the assay with MALME-3M melanoma; 49.5 µM with MCF7 breast; 52.8 µM with MDA-MB-231 breast. Also, the TGI in the assay with MOLT-4 leukemia was 31.9 µM; with NCI-H226 lung, 75.1 µM; in the assay with NCI-H460 lung it was 54.3 µM; in the assay with UACC-257 melanoma, above 68.9 µM.
For the compound `COc1ccc2sc3c(NCCCN)nc4ccccc4c3c(=O)c2c1`, the GI50 in the assay on BT-549 breast is 1.69 µM; in the assay on HOP-92 NSCLC it was 1360 nM; in the assay on MALME-3M melanoma it was 1780 nM; in the assay on MCF7 breast it was 1700 nM; in the assay with MDA-MB-231 breast it was 1520 nM; in the assay on MOLT-4 leukemia, 1480 nM. Also, the GI50 is 1.84 µM in the assay with NCI-H226 lung, 1.86 µM with NCI-H460 lung and 1910 nM in the assay with UACC-257 melanoma. Also, the TGI came out at 3.55 µM with BT-549 breast; 3390 nM in the assay with HOP-92 NSCLC; 3.32 µM in the assay on MALME-3M melanoma; 3.48 µM in the assay with MCF7 breast; 3 µM in the assay with MDA-MB-231 breast; 3.17 µM in the assay with MOLT-4 leukemia. In addition, the TGI with NCI-H226 lung worked out at 3.84 µM; in the assay on NCI-H460 lung it was 3.55 µM; in the assay with UACC-257 melanoma, 3.88 µM.

(Values after PubChem BioAssay (NCI).)
